Patent US9273095B2, “Antibiotic peptide and preparation method therefor and application therefor” (priority 2011, dated 2016)
Converted amounts (≈) assume the structure as drawn. Read-outs that look alike come from different tables or passages of the source. Non-standard residues stand in square brackets, D forms with d. Residues, ends and D or L forms follow the SMILES beside them.

Columns and labels:
[1] = test system: aspergillus flavous; assay: microbe, parasite or virus in culture; format: cell-based
Method in brief: (§1)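 Broth dilution in RPMI-1640 with PL-13 peptide diluted 10-fold from stock; inoculum 1-3×10^3 CFU/ml in the test. Strains activated at 60% humidity, 25 °C for aspergillus or 37 °C for candida; living and blank control wells included.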

[2] = test system: aspergillus fumigatus; assay: microbe, parasite or virus in culture; format: cell-based
Method in brief: as §1

[3] = test system: candida albicans; assay: microbe, parasite or virus in culture; format: cell-based
Method in brief: as §1

[4] = test system: candida glabrata; assay: microbe, parasite or virus in culture; format: cell-based
Method in brief: as §1

[5] = test system: candida tropicalis; assay: microbe, parasite or virus in culture; format: cell-based
Method in brief: as §1

[6] = test system: Acinetobacter calcoaceticus; assay: microbe, parasite or virus in culture; format: cell-based; conditions: Acinetobacter calcoaceticus25001
Method in brief: (§2)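 Growth on drug-containing MH agar plates is read after 18 hours at 35° C to give the minimum inhibitory concentration. Two-fold drug series runs from 0.03 to 128 μg/ml; spots carry 10^4CFU each.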

[7] = test system: Enterobacter aerogenes; assay: microbe, parasite or virus in culture; format: cell-based; conditions: Enterobacter aerogenes 45102
Method in brief: as §2

[8] = test system: Enterobacter cloacae; assay: microbe, parasite or virus in culture; format: cell-based; conditions: Enterobacter cloacae 45301
Method in brief: as §2

[9] = test system: Feilaoti citrobacter; assay: microbe, parasite or virus in culture; format: cell-based; conditions: Feilaoti citrobacter 48001
Method in brief: as §2

[10] = test system: Proteus vulgaris; assay: microbe, parasite or virus in culture; format: cell-based; conditions: Proteus vulgaris 56
Method in brief: as §2

[11] = test system: Salmonella typhimurium; assay: microbe, parasite or virus in culture; format: cell-based; conditions: Salmonella typhimurium
Method in brief: as §2

[12] = test system: Serratia marcescens; assay: microbe, parasite or virus in culture; format: cell-based; conditions: Serratia marcescens 41002
Method in brief: as §2

[13] = test system: Shigella flexneri; assay: microbe, parasite or virus in culture; format: cell-based
Method in brief: as §2

[14] = test system: Shigella sonnei; assay: microbe, parasite or virus in culture; format: cell-based; conditions: Shigella sonnei strains 51592
Method in brief: as §2

[15] = test system: Staphylococcus aureus; assay: microbe, parasite or virus in culture; format: cell-based
Method in brief: (§3)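 Testing covers laboratory standard strains and clinical isolates, resistant bacteria among them, with ATCC quality-control strains. Each is multipoint-inoculated at 10^4CFU/point onto MH agar holding two-fold drug dilutions (0.03–128 μg/ml) and incubated 18 hours at 35° C.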

[16] = test system: Typhoid bacillus H901; assay: microbe, parasite or virus in culture; format: cell-based
Method in brief: as §2

[17] = test system: klebsiella pneumoniae; assay: microbe, parasite or virus in culture; format: cell-based
Method in brief: as §3

[18] = test system: Enterococcus faecalis; assay: organism not typed; format: cell-based; conditions: read-out: MIC
Experimental: (§4) The experimental strains are 37 standard strains preserved in lab and clinical isolated bacteria, including drug-resistant bacteria and quality-control bacteria selecting Staphylococcus aureus ATCC29213, Enterococcus faecalis ATCC29212, Escherichia coli ATCC25922, Pseudomonas aeruginosa ATCC27853 and klebsiella pneumoniae ATCC700603.
(§5) (1) Sensitivity test is conducted with two-fold agar dilution method and Denlay multipoint inoculator. Test bacteria are cultured with nutrient broth and brain heart infusion.
(§6) (2) The drug is double diluted into different concentration with MH broth after dissolved and then placed in the plate respectively.
(§7) (4) After solidification of the culture medium in the plate, test bacteria (10^4CFU/point) are inoculated by multipoint inoculator and cultured for 18 hours at constant 35° C. Then observe the results.

[19] = test system: Enterococcus faecium; assay: microbe, parasite or virus in culture; format: cell-based
Experimental: as §4, §5, §6, §7

[20] = Circular dichroism (CD) spectroscopy, helical structure; format: physicochemical
Experimental: The mean residue molar ellipticities of peptides are determined by circular dichroism (CD) spectroscopy, using a Jasco J-720 spectropolarimeter (Jasco, Easton, Md.), at 25° C. under benign conditions (50 mM KH2PO4/K2HPO4/100 mM KCl, pH7), as well as in the presence of an α-helix inducing solvent, 2,2,2-trifluoroethanol (TFE) (50 mM KH2PO4/K2HPO4/100 mM KCL, pH 7 buffer/50% TFE). A 10-fold dilution of a 500 μM stock solution of the peptide is loaded into a 0.02 cm fused silica cell and its mean residue molar ellipticity scanned from 190 to 250 nm. The values of mean residue molar ellipticities of the peptide at a wavelength of 222 nm are used to estimate the relative amount of α-helicity of the peptides.
To determine the secondary structure of peptides in different environments, circular dichroism (CD) spectra of the peptide analogs are measured under physiologically related pH and ionic strength (100 mM KCl, 50 mM aq. PO4, pH 7 referred to as benign conditions) and also in 50% TFE to mimic the hydrophobic environment of the membrane. CD spectra of the peptide analogs are measured under benign conditions (100 mM KCl, 50 mM KH2PO4/K2HPO4, pH 7, referred to as KP buffer) and also in 50% trifluoroethanol (TFE) to mimic the hydrophobic environment of the membrane. […] However, in the presence of 50% TFE, all three L-peptides are fully folded α-helical structures with similar molar ellipticities and helicity.
FIG. 2 illustrates graphical results of Circular dichroism (CD) spectra of peptides at pH 7.4 and 25° C., in 50 mM aq. PO4 containing 100 mM KCl, wherein KP buffer (50 mM KH2PO4, K2HPO4, 100 mM KCl, pH 7.4) mimics hydrophilic environment and KP buffer-TFE (1:1 [vol/vol]) mimics hydrophobic environment of cell membrane. The figure above represents the CD spectra of peptides in benign buffer without TFE, whilst the figure below represents CD spectra obtained in the presence of 50% TFE.

[21] = JLC 30506 aspergillus fumigatus
[22] = JLC 30883 aspergillus fumigatus
[23] = 08-49(MSSA) Meticillin susceptible staphylococcus aureus
[24] = 08-52(MRSA) Methicillin-resistant staphylococcus aureus
[25] = Staphylococcus aureus ATCC25923
[26] = Staphylococcus aureus ATCC29213
[27] = strain 15 (listed under Staphylococcus aureus)
[28] = 08-2 (ESBLs) (listed under klebsiella pneumoniae)
[29] = klebsiella pneumoniae ATCC700603
[30] = strain 7 (listed under klebsiella pneumoniae)
[31] = 06-71 (VRE) Vancomycin-resistant Enterococci
[32] = Enterococcus faecalis ATCC29212
[33] = HH22* (AMEs) Aminoglycoside-modifying enzyme
[34] = strain 06-7 (listed under Enterococcus faecalis)
[35] = 06-12 (VREF) Vancomycin-resistant enterococci

| Compound | Minimal inhibitory concentration ([1]; JLC 30784 aspergillus flavous) [µg/mL] | Minimal inhibitory concentration ([1]; JLC 40437 aspergillus flavous) [µg/mL] | Minimal inhibitory concentration [2, 21] [µg/mL] | Minimal inhibitory concentration [2, 22] [µg/mL] | Minimal inhibitory concentration ([3]; JLC 33659 candida albicans) [µg/mL] | Minimal inhibitory concentration ([3]; JLC 33660 candida albicans) [µg/mL] | Minimal inhibitory concentration ([4]; JLC 30367 candida glabrata) [µg/mL] | Minimal inhibitory concentration ([4]; JLC 31512 candida glabrata) [µg/mL] | Minimal inhibitory concentration ([5]; JLC 31379 candida tropicalis) [µg/mL] | Minimal inhibitory concentration ([5]; JLC 31384 candida tropicalis) [µg/mL] | MIC [6] [µM] | MIC [7] [µM] | MIC [8] [µM] | MIC [9] [µM] | MIC [10] [µM] | MIC [11] [µM] | MIC [12] [µM] | MIC [13] [µM] | MIC [14] [µM] | MIC [15, 23] [µM] | further results |
| --- | --- | --- | --- | --- | --- | --- | --- | --- | --- | --- | --- | --- | --- | --- | --- | --- | --- | --- | --- | --- | --- |
| CC[C@@H](C)[C@@H](NC(=O)[C@@H](CCCCN)NC(=O)[C@@H](CO)NC(=O)[C@@H](Cc1ccccc1)NC(=O)[C@@H](CC(C)C)NC(=O)[C@@H](CCCCN)NC(=O)[C@@H](CCC(=O)O)NC(=O)[C@@H](CC(C)C)NC(=O)[C@@H](CCCNC(=N)N)NC(=O)[C@@H](CCCCN)NC(=O)[C@@H](Cc1ccccc1)NC(C)=O)C(=O)N[C@H](Cc1c[nH]c2ccccc12)C(=O)N[C@H](CC(N)=O)C(=O)N[C@H](Cc1c[nH]c2ccccc12)C(=O)N[C@H](CCCCN)C(N)=O [PL-17] (Ac-[dF][dK][dR][dL][dE][dK][dL][dF][dS][dK][dI][dW][dN][dW][dK]-NH2) | >64 | >64 | 32 (≈ 15.5 µM) | 32 (≈ 15.5 µM) | 4 (≈ 1.94 µM) | 4 (≈ 1.94 µM) | 4 (≈ 1.94 µM) | 8 (≈ 3.88 µM) | 2 (≈ 0.969 µM) | 2 (≈ 0.969 µM) | 1.3 (≈ 2.68 µg/mL) | 1.3 (≈ 2.68 µg/mL) | 1.3 (≈ 2.68 µg/mL) | 2.7 (≈ 5.57 µg/mL) | 5.3 (≈ 10.9 µg/mL) | 1.3 (≈ 2.68 µg/mL) | 1.3 (≈ 2.68 µg/mL) | 0.3 (≈ 0.619 µg/mL) | 0.3 (≈ 0.619 µg/mL) | 0.7 (≈ 1.45 µg/mL) | MIC [15, 24]: 5.3 µM (≈ 10.9 µg/mL); MIC [15, 25]: 0.3 µM (≈ 0.619 µg/mL); MIC [15, 26]: 0.3 µM (≈ 0.619 µg/mL); MIC [15, 27]: 0.3 µM (≈ 0.619 µg/mL); MIC [16]: 0.7 µM (≈ 1.45 µg/mL); MIC [17, 28]: 0.3 µM (≈ 0.619 µg/mL); MIC [17, 29]: 2.7 µM (≈ 5.57 µg/mL); MIC [17, 30]: 0.3 µM (≈ 0.619 µg/mL); MIC [18, 31]: 1.7 µM (≈ 3.51 µg/mL); MIC [18, 32]: 5.3 µM (≈ 10.9 µg/mL); MIC [18, 33]: 10.7 µM (≈ 22.1 µg/mL); MIC [18, 34]: 5.3 µM (≈ 10.9 µg/mL); MIC [19, 35]: 1.7 µM (≈ 3.51 µg/mL); MIC ([19]; Enterococcus faecium 06-1): 10.7 µM (≈ 22.1 µg/mL) |
| Ac-FKRLEKLFSKIWNWK-NH2 [PL-12] | >64 | >64 | 32 | 32 | 16 | 16 | 32 | 32 | 4 | 8 | 0.03 | 0.03 | 0.3 | 5.3 | 0.3 | 5.3 | 0.03 | 2.7 | 2.7 | 0.7 | 50% TFE % helix ([20]; 50% TFE, relative to ellipticity (100%) of reference peptide in 50% TFE): 93.8%; secondary structure by CD (in words) ([20]; KP buffer (benign)): only partially helical; Benign buffer % helix ([20]; benign buffer, relative to ellipticity (100%) of reference peptide in 50% TFE): 11.9%; Benign buffer [θ]222 ([20]; mean residue molar ellipticity at 222 nm, 25° C., 100 mM KCl, 50 mM PO4, pH 7.0): −3350 deg · cm^2 · dmol^−1; 50% TFE [θ]222 ([20]; mean residue molar ellipticity at 222 nm, 25° C., buffer containing 50% TFE): −26450 deg · cm^2 · dmol^−1; MIC [15, 24]: 1.3 µM; MIC [15, 25]: 1.3 µM; MIC [15, 26]: 1.3 µM; MIC [15, 27]: 1.3 µM; MIC [16]: 5.3 µM; MIC [17, 28]: 5.3 µM; MIC [17, 29]: 2.7 µM; MIC [17, 30]: 5.3 µM; MIC [18, 31]: 0.3 µM; MIC [18, 32]: 1.3 µM; MIC [18, 33]: 0.3 µM; MIC [18, 34]: 5.3 µM; MIC [19, 35]: 1.3 µM; MIC ([19]; Enterococcus faecium 06-1): 5.3 µM |
